Source: ChEMBL document CHEMBL3576839, “N-Aryl azacycles as novel sodium channel blockers” (Bioorg Med Chem Lett, 2015)
In brackets after ≈: the same amount, converted by molar mass. Values belong to the compound of their own block, whether it stands above or below them.

Legend:
[1] = Kinetic solubility of the compound at pH 1.2; assay type: physicochemical; settings: buffer, read-out: Kinetic_solubility
[2] = Kinetic solubility of the compound at pH 6.8; assay type: physicochemical; settings: buffer, read-out: Kinetic_solubility
[3] = target: T1, Sodium channel protein type 9 subunit alpha (Homo sapiens, UniProt Q15858); assay: Inhibition of Nav1.7 (unknown origin) by electrophysiological assay
[4] = Cmax in Sprague-Dawley rat at 3 mg/kg, po; assay type: ADME, organism-based; set-up: dose 3 mg/kg, route oral; settings: in vivo
MDR1 [5] = assay: Efflux ratio of permeability from basolateral to apical side over apical to basolateral side in MDCK cells expressing MDR1; assay type: ADME, cell-based, Canis lupus familiaris; settings: dog
MDR1 [6] = assay: Apparent permeability from basolateral to apical side in MDCK cells expressing MDR1; assay type: ADME, cell-based, Canis lupus familiaris; settings: dog
[7] = Tmax in Sprague-Dawley rat at 3 mg/kg, po; assay type: ADME, organism-based; settings: in vivo
[8] = AUC in Sprague-Dawley rat at 3 mg/kg, po; assay type: ADME, organism-based; settings: in vivo
hERG (KCNH2) = hERG (KCNH2) (Homo sapiens, UniProt Q12809); assay: Inhibition of human ERG at 1 uM
MDR1 [9] = assay: Apparent permeability from apical to basolateral side in MDCK cells expressing MDR1; assay type: ADME, cell-based, Canis lupus familiaris; settings: dog
[10] = target: T1, Sodium channel protein type 9 subunit alpha; assay: Inhibition of Nav1.7 (unknown origin) expressed in CHO cells after 45 mins by FLIPR assay; assay type: cell-based

T1 sequence (Q15858 whole entry): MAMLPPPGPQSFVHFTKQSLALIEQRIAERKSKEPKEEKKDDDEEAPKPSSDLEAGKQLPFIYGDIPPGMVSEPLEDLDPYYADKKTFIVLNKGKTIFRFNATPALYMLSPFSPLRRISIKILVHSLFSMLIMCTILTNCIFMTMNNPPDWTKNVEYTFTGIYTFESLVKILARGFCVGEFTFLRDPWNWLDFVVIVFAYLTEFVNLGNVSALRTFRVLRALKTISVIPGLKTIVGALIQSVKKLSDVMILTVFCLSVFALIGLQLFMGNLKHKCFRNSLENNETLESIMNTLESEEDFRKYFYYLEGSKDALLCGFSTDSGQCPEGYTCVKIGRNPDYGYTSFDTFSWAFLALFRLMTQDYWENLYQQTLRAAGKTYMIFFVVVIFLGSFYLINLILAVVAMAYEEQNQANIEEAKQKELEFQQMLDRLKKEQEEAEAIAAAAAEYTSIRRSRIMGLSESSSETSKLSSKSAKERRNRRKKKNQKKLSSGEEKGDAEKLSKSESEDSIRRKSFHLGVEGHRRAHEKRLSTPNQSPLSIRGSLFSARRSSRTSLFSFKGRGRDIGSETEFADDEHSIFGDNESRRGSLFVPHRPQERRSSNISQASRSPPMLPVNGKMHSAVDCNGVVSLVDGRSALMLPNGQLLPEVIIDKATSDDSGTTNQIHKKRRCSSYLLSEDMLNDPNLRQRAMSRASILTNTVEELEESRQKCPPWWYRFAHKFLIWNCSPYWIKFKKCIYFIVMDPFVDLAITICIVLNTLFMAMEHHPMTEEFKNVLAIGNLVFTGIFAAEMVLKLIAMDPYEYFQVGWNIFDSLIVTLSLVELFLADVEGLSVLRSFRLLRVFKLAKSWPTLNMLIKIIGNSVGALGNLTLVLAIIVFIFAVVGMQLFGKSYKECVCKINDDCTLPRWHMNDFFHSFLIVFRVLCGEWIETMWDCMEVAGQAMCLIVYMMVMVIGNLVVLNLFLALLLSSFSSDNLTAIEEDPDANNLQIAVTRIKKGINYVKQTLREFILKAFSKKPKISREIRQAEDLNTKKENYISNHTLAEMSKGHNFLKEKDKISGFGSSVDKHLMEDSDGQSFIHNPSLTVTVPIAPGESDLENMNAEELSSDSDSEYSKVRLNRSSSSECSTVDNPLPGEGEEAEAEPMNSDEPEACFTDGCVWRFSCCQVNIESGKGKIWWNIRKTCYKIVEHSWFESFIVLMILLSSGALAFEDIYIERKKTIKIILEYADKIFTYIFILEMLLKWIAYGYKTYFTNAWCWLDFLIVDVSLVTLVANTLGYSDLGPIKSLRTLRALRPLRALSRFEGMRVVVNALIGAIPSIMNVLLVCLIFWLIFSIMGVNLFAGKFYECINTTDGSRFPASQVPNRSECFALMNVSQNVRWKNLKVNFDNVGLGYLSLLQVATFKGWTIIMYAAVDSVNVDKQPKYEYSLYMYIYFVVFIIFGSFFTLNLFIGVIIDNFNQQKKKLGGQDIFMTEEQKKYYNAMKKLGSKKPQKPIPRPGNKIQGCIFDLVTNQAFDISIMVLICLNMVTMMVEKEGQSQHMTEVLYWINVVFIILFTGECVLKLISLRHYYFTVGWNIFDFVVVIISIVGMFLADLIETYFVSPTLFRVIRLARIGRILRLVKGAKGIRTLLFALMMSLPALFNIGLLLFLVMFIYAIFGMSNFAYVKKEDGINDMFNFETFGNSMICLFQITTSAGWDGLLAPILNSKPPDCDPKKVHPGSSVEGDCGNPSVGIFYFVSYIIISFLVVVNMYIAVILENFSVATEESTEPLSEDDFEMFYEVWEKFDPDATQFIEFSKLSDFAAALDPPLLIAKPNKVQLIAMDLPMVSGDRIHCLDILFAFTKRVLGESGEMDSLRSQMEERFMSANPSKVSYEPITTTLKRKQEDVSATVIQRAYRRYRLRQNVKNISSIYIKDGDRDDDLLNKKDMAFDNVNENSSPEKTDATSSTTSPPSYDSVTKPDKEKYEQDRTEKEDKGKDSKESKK
hERG (KCNH2), sequence (Q12809 whole entry): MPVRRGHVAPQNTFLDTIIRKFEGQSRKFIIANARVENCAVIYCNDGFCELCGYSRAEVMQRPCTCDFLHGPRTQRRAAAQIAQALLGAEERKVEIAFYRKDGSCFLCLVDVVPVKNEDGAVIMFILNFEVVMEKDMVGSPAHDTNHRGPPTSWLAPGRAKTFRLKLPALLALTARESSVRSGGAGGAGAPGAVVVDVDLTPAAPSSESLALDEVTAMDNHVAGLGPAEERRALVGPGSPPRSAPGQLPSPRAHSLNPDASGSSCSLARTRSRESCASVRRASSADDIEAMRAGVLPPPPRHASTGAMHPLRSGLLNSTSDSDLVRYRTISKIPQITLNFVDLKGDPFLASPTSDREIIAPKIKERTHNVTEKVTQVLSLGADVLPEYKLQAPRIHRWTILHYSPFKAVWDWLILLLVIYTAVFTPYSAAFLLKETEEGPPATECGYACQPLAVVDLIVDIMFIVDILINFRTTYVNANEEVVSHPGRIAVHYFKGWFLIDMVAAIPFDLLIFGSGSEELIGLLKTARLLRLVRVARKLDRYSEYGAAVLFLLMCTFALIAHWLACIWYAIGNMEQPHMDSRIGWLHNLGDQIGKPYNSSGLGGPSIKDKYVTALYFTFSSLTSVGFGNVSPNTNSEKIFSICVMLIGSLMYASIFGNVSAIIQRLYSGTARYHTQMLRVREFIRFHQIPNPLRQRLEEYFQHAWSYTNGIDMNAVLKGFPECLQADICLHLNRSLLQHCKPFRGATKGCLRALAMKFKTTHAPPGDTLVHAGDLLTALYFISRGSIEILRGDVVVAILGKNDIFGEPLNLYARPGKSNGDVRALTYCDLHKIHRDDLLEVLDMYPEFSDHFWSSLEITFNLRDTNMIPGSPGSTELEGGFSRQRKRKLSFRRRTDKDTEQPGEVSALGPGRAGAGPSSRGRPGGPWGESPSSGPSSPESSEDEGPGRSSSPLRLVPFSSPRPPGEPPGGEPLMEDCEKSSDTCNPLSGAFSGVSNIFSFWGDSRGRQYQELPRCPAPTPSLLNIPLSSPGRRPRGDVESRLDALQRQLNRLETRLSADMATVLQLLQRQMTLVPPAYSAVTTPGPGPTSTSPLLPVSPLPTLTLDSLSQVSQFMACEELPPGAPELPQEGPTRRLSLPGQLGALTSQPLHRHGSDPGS

solubility kinetic [1]: 0.08 µM (≈ 0.0331 µg/mL)
solubility kinetic [2]: 0.08 µM (≈ 0.0331 µg/mL)
Structure (SMILES): NC(=O)c1cccc(-c2ccc3c(c2)OCCCN3c2ccc(C(F)(F)F)cc2)n1

solubility kinetic [1]: 18 µM (≈ 7.42 µg/mL)
solubility kinetic [2]: 0.59 µM (≈ 0.243 µg/mL)
Structure (SMILES): NC(=O)c1cccc(-c2ccc3c(c2)CNCCN3c2ccc(C(F)(F)F)cc2)n1

Ki [3]: 440 nM
Structure (SMILES): CNC(=O)CN1CCN(c2ccc(C(F)(F)F)cc2)c2ccc(-c3cccc([C@H](O)CO)n3)cc2C1

solubility kinetic [1]: 0.03 µM (≈ 0.0123 µg/mL)
solubility kinetic [2]: 0.02 µM (≈ 0.00823 µg/mL)
Structure (SMILES): NC(=O)c1cccc(-c2ccc3c(c2)CCCCN3c2ccc(C(F)(F)F)cc2)n1

Cmax [4]: 94 ng/mL
efflux ratio (MDR1 [5]): 31
solubility kinetic [1]: 80 µM (≈ 37.7 µg/mL)
Papp B→A (MDR1 [6]): 28.3 ×10⁻⁶ cm/s
Tmax [7]: 2.5 h
AUC [8]: 562 ng·h/mL
solubility kinetic [2]: 39 µM (≈ 18.4 µg/mL)
Papp A→B (MDR1 [9]): 0.9 ×10⁻⁶ cm/s
Structure (SMILES): CC(=O)N1CCN(c2ccc(C(F)(F)F)cc2)c2ccc(-c3cccc([C@H](O)CO)n3)cc2C1
inhibition at 1 µM (hERG (KCNH2)): 13.9%

Cmax [4]: 21 ng/mL
solubility kinetic [1]: 66 µM (≈ 31.2 µg/mL)
Tmax [7]: 2.5 h
AUC [8]: 133 ng·h/mL
solubility kinetic [2]: 1 µM (≈ 0.472 µg/mL)
Structure (SMILES): NC(=O)N1CCN(c2ccc(C(F)(F)F)cc2)c2ccc(-c3cccc([C@H](O)CO)n3)cc2C1
inhibition at 1 µM (hERG (KCNH2)): 22.6%

IC50 [10]: 380 nM
Structure (SMILES): CC(=O)N1CCN(c2ccc(C(F)(F)F)cc2)c2ccc(-c3cccc(C(N)=O)n3)cc2C1

Ki [3]: 230 nM
Structure (SMILES): CS(=O)(=O)N1CCN(c2ccc(C(F)(F)F)cc2)c2ccc(-c3cccc([C@H](O)CO)n3)cc2C1
